Results published in ChEMBL document CHEMBL1909046, “DrugMatrix in vitro pharmacology data”.

Tests used:
[1] = DRUGMATRIX: Sodium/nucleoside co-transporter radioligand binding (ligand: nitrobenzylthioinosine); type: cell membranes, Cavia porcellus, Dunkin-Hartley, Cerebral cortex, Membrane; settings: Not Active = under 50% inhibition at 10 µM
[2] = DRUGMATRIX: Calcium Channel Type L, Phenylalkylamine radioligand binding (ligand: [3H] (-)-Desmethoxyverapamil (D-888)); type: cell membranes, Rattus norvegicus, Wistar, Brain, Membrane; settings: Not Active = under 50% inhibition at 10 µM
[3] = target: T1, Cytochrome P450 1A2 (Homo sapiens, UniProt P05177); settings: bti-tn-5b1-4; also: in other assays of this panel Not Active means under 50% inhibition at 10 µM
T1 sequence (P05177 whole entry): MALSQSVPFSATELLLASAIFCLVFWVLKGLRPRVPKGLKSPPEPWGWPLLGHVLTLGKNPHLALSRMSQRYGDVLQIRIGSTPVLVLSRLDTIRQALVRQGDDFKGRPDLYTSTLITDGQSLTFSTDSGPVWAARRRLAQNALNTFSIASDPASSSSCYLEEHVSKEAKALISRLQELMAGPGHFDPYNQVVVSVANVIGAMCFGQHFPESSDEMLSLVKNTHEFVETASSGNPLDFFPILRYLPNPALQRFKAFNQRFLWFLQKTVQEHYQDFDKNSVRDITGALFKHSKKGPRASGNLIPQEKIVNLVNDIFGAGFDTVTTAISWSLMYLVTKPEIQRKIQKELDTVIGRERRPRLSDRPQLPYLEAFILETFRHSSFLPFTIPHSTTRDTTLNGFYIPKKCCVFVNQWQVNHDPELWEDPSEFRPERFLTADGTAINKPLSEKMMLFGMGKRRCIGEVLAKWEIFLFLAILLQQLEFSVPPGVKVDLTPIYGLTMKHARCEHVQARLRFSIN

[4] = target: T2, B2 bradykinin receptor (Homo sapiens, UniProt P30411); type: cell membranes, Membrane; settings: chem-1; also: in other assays of this panel Not Active means under 50% inhibition at 10 µM
T2 sequence (P30411 whole entry): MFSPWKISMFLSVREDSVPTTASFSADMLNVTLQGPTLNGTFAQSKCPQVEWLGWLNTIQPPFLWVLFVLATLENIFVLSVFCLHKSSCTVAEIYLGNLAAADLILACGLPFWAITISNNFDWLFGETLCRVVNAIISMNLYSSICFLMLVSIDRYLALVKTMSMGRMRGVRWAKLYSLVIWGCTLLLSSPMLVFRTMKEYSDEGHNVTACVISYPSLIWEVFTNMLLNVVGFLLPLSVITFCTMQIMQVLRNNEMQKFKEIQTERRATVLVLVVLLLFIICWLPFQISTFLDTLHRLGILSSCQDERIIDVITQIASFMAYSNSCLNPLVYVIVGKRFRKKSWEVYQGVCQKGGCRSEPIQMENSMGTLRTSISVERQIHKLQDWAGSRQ

[5] = DRUGMATRIX: Glutamate, AMPA radioligand binding (ligand: [3H] AMPA); type: cell membranes, Rattus norvegicus, Wistar, Cerebral cortex, Membrane; settings: Not Active = under 50% inhibition at 10 µM
[6] = target: Cannabinoid receptor 1 (Homo sapiens, UniProt P21554); type: cell membranes, Membrane; settings: chem-1; also: in other assays of this panel Not Active means under 50% inhibition at 10 µM
[7] = target: Receptor tyrosine-protein kinase erbB-2 (Homo sapiens, UniProt P04626); test: biochemical; type: cell-based, Insect cells;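 also: inhibition of HER2 kinase enzyme activity, measured with Poly(Glu:Tyr) as the phosphorylation substrate; in other assays of this panel Not Active means under 50% inhibition at 10 µM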
Sequence of Receptor tyrosine-protein kinase erbB-2 (P04626 whole entry): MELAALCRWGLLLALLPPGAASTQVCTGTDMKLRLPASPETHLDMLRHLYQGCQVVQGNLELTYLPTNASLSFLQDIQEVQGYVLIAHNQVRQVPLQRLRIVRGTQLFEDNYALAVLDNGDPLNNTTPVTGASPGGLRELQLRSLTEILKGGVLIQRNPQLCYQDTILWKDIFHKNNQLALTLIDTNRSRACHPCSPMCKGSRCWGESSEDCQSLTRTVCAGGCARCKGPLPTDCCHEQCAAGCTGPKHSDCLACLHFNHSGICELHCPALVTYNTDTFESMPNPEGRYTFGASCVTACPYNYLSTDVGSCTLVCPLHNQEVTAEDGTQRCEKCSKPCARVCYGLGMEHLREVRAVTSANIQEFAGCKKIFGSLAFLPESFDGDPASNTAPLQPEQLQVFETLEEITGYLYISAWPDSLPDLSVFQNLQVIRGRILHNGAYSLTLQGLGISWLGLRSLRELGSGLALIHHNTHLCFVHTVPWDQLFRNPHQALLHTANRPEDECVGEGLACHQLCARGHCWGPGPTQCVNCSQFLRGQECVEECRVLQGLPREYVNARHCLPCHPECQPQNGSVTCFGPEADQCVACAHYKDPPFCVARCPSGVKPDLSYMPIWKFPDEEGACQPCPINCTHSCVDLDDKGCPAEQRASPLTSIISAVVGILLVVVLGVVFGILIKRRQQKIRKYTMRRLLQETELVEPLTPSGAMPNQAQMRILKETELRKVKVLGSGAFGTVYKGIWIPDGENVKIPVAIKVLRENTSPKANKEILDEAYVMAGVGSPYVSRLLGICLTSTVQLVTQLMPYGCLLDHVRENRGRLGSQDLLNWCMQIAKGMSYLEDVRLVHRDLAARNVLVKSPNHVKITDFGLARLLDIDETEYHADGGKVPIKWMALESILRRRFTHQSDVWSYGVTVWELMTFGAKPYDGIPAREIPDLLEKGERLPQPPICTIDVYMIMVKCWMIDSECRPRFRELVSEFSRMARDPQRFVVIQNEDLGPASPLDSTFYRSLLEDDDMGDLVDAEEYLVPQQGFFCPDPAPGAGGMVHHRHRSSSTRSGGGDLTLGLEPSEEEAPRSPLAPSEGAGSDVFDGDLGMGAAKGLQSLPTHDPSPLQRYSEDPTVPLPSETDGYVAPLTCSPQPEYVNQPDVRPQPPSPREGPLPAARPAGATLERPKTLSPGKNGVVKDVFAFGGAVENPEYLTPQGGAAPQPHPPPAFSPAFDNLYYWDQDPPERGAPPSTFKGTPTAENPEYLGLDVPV

Sequence of Cannabinoid receptor 1 (P21554 whole entry): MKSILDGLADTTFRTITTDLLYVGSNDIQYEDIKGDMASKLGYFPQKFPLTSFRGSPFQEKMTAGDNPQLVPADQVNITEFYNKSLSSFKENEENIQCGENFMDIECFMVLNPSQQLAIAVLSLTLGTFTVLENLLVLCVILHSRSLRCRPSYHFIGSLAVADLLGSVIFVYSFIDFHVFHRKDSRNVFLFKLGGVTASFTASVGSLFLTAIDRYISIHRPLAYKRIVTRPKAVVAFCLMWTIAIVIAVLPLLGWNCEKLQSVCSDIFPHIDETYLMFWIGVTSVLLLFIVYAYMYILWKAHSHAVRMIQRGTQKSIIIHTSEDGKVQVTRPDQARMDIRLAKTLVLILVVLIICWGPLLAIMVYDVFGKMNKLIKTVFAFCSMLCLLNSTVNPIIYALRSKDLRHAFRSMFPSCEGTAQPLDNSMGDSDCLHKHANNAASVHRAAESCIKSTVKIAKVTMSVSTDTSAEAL

SMILES | IC50 [1] | Ki [1] | IC50 [2] | Ki [2] | IC50 [3] | Ki [3] | IC50 [4] | IC50 [5] | Ki [5] | IC50 [6] | IC50 ([7]; insect cells) | IC50 ([7]; read-out: IC50) [nM] | IC50 ([1]; read-out: IC50) [nM] | Ki ([1]; read-out: Ki) [nM]
COc1cc(N)nc2[nH]c(-c3ccc(F)cc3)c(-c3ccncc3)c12 | Not Active | Not Active | Not Active | Not Active | Not Active | Not Active | Not Active | Not Active | Not Active | Not Active | Not Active | – | – | –
CNS(=O)(=O)Cc1ccc2[nH]cc(CCN(C)C)c2c1 | Not Active | Not Active | Not Active | Not Active | Not Active | Not Active | Not Active | Not Active | Not Active | Not Active | Not Active | – | – | –
CCCc1nn(C)c2c(=O)[nH]c(-c3cc(S(=O)(=O)N4CCN(C)CC4)ccc3OCC)nc12 | Not Active | Not Active | Not Active | Not Active | Not Active | Not Active | Not Active | Not Active | Not Active | Not Active | Not Active | – | – | –
COc1ccc(/C=C/C(=O)Nc2ccccc2C(=O)O)cc1OC | Not Active | Not Active | Not Active | Not Active | Not Active | Not Active | Not Active | Not Active | Not Active | Not Active | Not Active | – | – | –
CCOC(N)=O | Not Active | Not Active | Not Active | Not Active | Not Active | Not Active | Not Active | Not Active | Not Active | Not Active | Not Active | – | – | –
CC(=O)Nc1nnc(S(N)(=O)=O)s1 [ACETAZOLAMIDE] | – | – | – | – | Not Active | Not Active | Not Active | – | – | Not Active | Not Active | – | – | –
O=c1[nH]c2ccccc2n1CCCN1CCC(n2c(=O)[nH]c3cc(Cl)ccc32)CC1 [DOMPERIDONE] | – | – | – | – | – | – | Not Active | – | – | Not Active | Not Active | – | – | –
CC1=C(CC(=O)O)c2cc(F)ccc2/C1=C\c1ccc(S(C)(=O)=O)cc1 [EXISULIND] | Not Active | Not Active | Not Active | Not Active | Not Active | Not Active | Not Active | Not Active | Not Active | Not Active | Not Active | – | – | –
CC(C)OC(=O)C(C)(C)Oc1ccc(C(=O)c2ccc(Cl)cc2)cc1 [FENOFIBRATE] | – | – | – | – | Not Active | Not Active | Not Active | – | – | Not Active | Not Active | – | – | –
OCCN1CCN(CCCN2c3ccccc3Sc3ccc(C(F)(F)F)cc32)CC1 [FLUPHENAZINE] | – | – | – | – | – | – | Not Active | – | – | Not Active | – | 19600 | – | –
CN1C2CCCC1CC(NC(=O)c1nn(C)c3ccccc13)C2 (stereo unspecified) [GRANISETRON] | – | – | – | – | Not Active | Not Active | Not Active | – | – | Not Active | Not Active | – | – | –
Nc1nc2c(c(=O)[nH]1)N(C=O)C(CNc1ccc(C(=O)N[C@@H](CCC(=O)O)C(=O)O)cc1)CN2 (stereo partly specified) [LEUCOVORIN] | Not Active | Not Active | Not Active | Not Active | Not Active | Not Active | Not Active | Not Active | Not Active | Not Active | Not Active | – | – | –
C[C@@H](O)[C@H]1C(=O)N2C(C(=O)O)=C(S[C@@H]3CN[C@H](C(=O)N(C)C)C3)[C@H](C)[C@H]12 [MEROPENEM] | Not Active | Not Active | Not Active | Not Active | Not Active | Not Active | Not Active | Not Active | Not Active | Not Active | Not Active | – | – | –
CC[C@@H](CO)NC(=O)[C@@H]1C=C2c3cccc4c3c(cn4C)C[C@H]2N(C)C1 [METHYSERGIDE] | – | – | – | – | Not Active | Not Active | Not Active | – | – | Not Active | Not Active | – | – | –
CCN(CC)CC#CCOC(=O)C(O)(c1ccccc1)C1CCCCC1 (stereo unspecified) [OXYBUTYNIN] | – | – | – | – | Not Active | Not Active | Not Active | – | – | Not Active | Not Active | – | – | –
O=P(O)(O)C(O)(Cc1cccnc1)P(=O)(O)O [RISEDRONIC ACID] | Not Active | Not Active | Not Active | Not Active | Not Active | Not Active | Not Active | Not Active | Not Active | Not Active | Not Active | – | – | –
CN(CCOc1ccc(CC2SC(=O)NC2=O)cc1)c1ccccn1 (stereo unspecified) [ROSIGLITAZONE] | Not Active | Not Active | Not Active | Not Active | Not Active | Not Active | Not Active | Not Active | Not Active | Not Active | Not Active | – | – | –
C=C(C)[C@H]1Cc2c(ccc3c2O[C@@H]2COc4cc(OC)c(OC)cc4[C@@H]2C3=O)O1 [ROTENONE] | Not Active | Not Active | Not Active | Not Active | Not Active | Not Active | Not Active | Not Active | Not Active | Not Active | Not Active | – | – | –
C#CCN(C)[C@H](C)Cc1ccccc1 [SELEGILINE] | Not Active | Not Active | Not Active | Not Active | Not Active | Not Active | Not Active | Not Active | Not Active | Not Active | Not Active | – | – | –
CO[C@H]1C[C@@H]2CC[C@@H](C)[C@@](O)(O2)C(=O)C(=O)N2CCCC[C@H]2C(=O)O[C@H]([C@H](C)C[C@@H]2CC[C@@H](O)[C@H](OC)C2)CC(=O)[C@H](C)/C=C(\C)[C@@H](O)[C@@H](OC)C(=O)[C@H](C)C[C@H](C)/C=C/C=C/C=C/1C [SIROLIMUS] | – | – | Not Active | Not Active | Not Active | Not Active | Not Active | Not Active | Not Active | Not Active | Not Active | – | 1080 | 371
CN[C@@H]1[C@H](O)[C@H](NC)[C@H]2O[C@@]3(O)C(=O)C[C@@H](C)O[C@H]3O[C@@H]2[C@H]1O [SPECTINOMYCIN] | Not Active | Not Active | Not Active | Not Active | – | – | Not Active | Not Active | Not Active | Not Active | Not Active | – | – | –
Nc1ccc(S(=O)(=O)Nc2ncccn2)cc1 [SULFADIAZINE] | Not Active | Not Active | Not Active | Not Active | Not Active | Not Active | Not Active | Not Active | Not Active | Not Active | Not Active | – | – | –
CCS(=O)(=O)CCn1c([N+](=O)[O-])cnc1C [TINIDAZOLE] | Not Active | Not Active | Not Active | Not Active | – | – | Not Active | Not Active | Not Active | Not Active | Not Active | – | – | –
NC[C@H]1O[C@H](O[C@H]2[C@H](O)[C@@H](O[C@H]3O[C@H](CO)[C@@H](O)[C@H](N)[C@H]3O)[C@H](N)C[C@@H]2N)[C@H](N)C[C@@H]1O [TOBRAMYCIN] | Not Active | Not Active | Not Active | Not Active | – | – | Not Active | Not Active | Not Active | Not Active | Not Active | – | – | –
O=c1n(CCCN2CCN(c3cccc(Cl)c3)CC2)nc2ccccn12 [TRAZODONE] | – | – | – | – | Not Active | Not Active | Not Active | – | – | Not Active | Not Active | – | – | –
COc1ccc(CN2CCNCC2)c(OC)c1OC [TRIMETAZIDINE] | Not Active | Not Active | Not Active | Not Active | – | – | Not Active | Not Active | Not Active | Not Active | Not Active | – | – | –
